# The source made the active and inactive calls. No cut-off for these calls is given here.
# Tests used:
# [1] = system: Staphylococcus aureus; assay: Antibacterial activity against Staphylococcus aureus CMCC(B)26003 by agar dilution method; format: functional
# [2] = system: Rhizoctonia solani; assay: Antifungal activity against Rhizoctonia solani at 50 ug/ml; format: functional
# [3] = system: Escherichia coli; assay: Antibacterial activity against Escherichia coli CMCC(B)44102 by agar dilution method; format: functional
# [4] = system: Botrytis cinerea; assay: Antifungal activity against Botrytis cinerea at 50 ug/ml; format: functional
# [5] = system: Fusarium graminearum; assay: Antifungal activity against Gibberella zeae at 50 ug/ml; format: functional
# [6] = system: Alternaria solani; assay: Antifungal activity against Alternaria solani at 50 ug/ml; format: functional
# [7] = system: Rhizoctonia solani; assay: Antifungal activity against Rhizoctonia solani assessed as protective effect at 400 ug/ml; format: functional; conditions: dose 400 µg/ml
# [8] = molecular target: DNA topoisomerase II (Homo sapiens) (UniProt P11388+Q02880); assay: Inhibition of DNA topoisomerase II (unknown origin); format: protein assay
# [9] = system: Rhizoctonia solani; assay: Antifungal activity against Rhizoctonia solani; format: functional, organism-based
# [10] = system: Rhizoctonia solani; assay: Antifungal activity against Rhizoctonia solani assessed as appearance of contracted surface at 25 ug/ml by SEM analysis; format: functional, organism-based; conditions: dose 25.0 µg/ml
# [11] = system: Rhizoctonia solani; assay: Antifungal activity against Rhizoctonia solani assessed as protective effect at 200 ug/ml; format: functional; conditions: dose 200 µg/ml
# [12] = system: Rhizoctonia solani; assay: Antifungal activity against Rhizoctonia solani assessed as mycelium shrinkage incubated for 36 hrs; format: functional, organism-based
# [13] = system: Rhizoctonia solani; assay: Antifungal activity against Rhizoctonia solani assessed as appearance of irregular intertwining at 25 ug/ml by SEM analysis; format: functional, organism-based; conditions: dose 25.0 µg/ml
# [14] = system: Rhizoctonia solani; assay: Antifungal activity against Rhizoctonia solani assessed as hyphal surface secretion at 25 ug/ml by SEM analysis; format: functional, organism-based; conditions: dose 25.0 µg/ml
# [15] = system: Rhizoctonia solani; assay: Antifungal activity against Rhizoctonia solani assessed as appearance of irregular mycelium bending incubated for 36 hrs; format: functional, organism-based
# [16] = system: Rhizoctonia solani; assay: Antifungal activity against Rhizoctonia solani assessed as appearance of disordered mycelium winding incubated for 36 hrs; format: functional, organism-based
# [17] = system: Rhizoctonia solani; assay: Antifungal activity against Rhizoctonia solani assessed as appearance of wrinkling on mycelium surface incubated for 36 hrs; format: functional, organism-based
# [18] = system: Rhizoctonia solani; assay: Antifungal activity against Rhizoctonia solani assessed as appearance of shrunk hyphae at 25 ug/ml by SEM analysis; format: functional, organism-based; conditions: dose 25.0 µg/ml
# [19] = system: Rhizoctonia solani; assay: Antifungal activity against Rhizoctonia solani assessed as appearance of twisted hyphae at 25 ug/ml by SEM analysis; format: functional, organism-based; conditions: dose 25.0 µg/ml
# [20] = system: Rhizoctonia solani; assay: Antifungal activity against Rhizoctonia solani assessed as appearance of rough surface at 25 ug/ml by SEM analysis; format: functional, organism-based; conditions: dose 25.0 µg/ml
Compound,MIC [1],inhibition at 50 µg/mL [2],MIC [3],inhibition at 50 µg/mL [4],inhibition at 50 µg/mL [5],inhibition at 50 µg/mL [6],also measured
CC(C)c1ccc2c(c1)CC[C@H]1[C@@](CN)(Cc3ccc(C(F)(F)F)cc3)CCC[C@]21C,> 128 mg/L,38.6%,16 mg/L,36.2%,25.5%,11.6%,–
CC(C)c1ccc2c(c1)CC[C@H]1[C@@](CNC(=O)c3ccccn3)(Cc3ccc(Br)cc3)CCC[C@]21C,32 mg/L,25.2%,4 mg/L,20.1%,0%,1.1%,–
CC(C)c1ccc2c(c1)CC[C@H]1[C@@](CNC(=O)c3ccccn3)(Cc3ccc(Cl)cc3)CCC[C@]21C,8 mg/L,55.3%,32 mg/L,51.3%,45.7%,35%,–
OCC1=C[C@H](N[C@H]2C[C@H](CO)[C@@H](O[C@@H]3O[C@H](CO)[C@@H](O)[C@H](O)[C@H]3O)[C@H](O)[C@H]2O)[C@H](O)[C@@H](O)[C@@H]1O [VALIDAMYCIN],–,–,–,–,–,–,Activity [7]: 83.1%
CC(C)c1ccc2c(c1)CC[C@H]1[C@@](CN)(Cc3ccc(C(C)(C)C)cc3)CCC[C@]21C,> 128 mg/L,65%,16 mg/L,32.4%,3.6%,7.9%,–
COc1ccccc1C[C@@]1(CN)CCC[C@]2(C)c3ccc(C(C)C)cc3CC[C@@H]12,> 128 mg/L,44.5%,32 mg/L,51.4%,24.8%,16.9%,–
CCOC(=O)c1ccc(C[C@@]2(CNC(=O)c3ccccn3)CCC[C@]3(C)c4ccc(C(C)C)cc4CC[C@@H]23)cc1,> 128 mg/L,0%,32 mg/L,0%,14.1%,1.2%,–
CC(C)c1ccc2c(c1)CC[C@H]1[C@@](CNC(=O)c3ccccn3)(Cc3ccc(C(C)(C)C)cc3)CCC[C@]21C,> 128 mg/L,65.4%,8 mg/L,38.4%,22.1%,31.6%,–
CC(C)c1ccc2c(c1)CC[C@H]1[C@@](CN)(Cc3ccc(Cl)cc3)CCC[C@]21C,8 mg/L,80.6%,0.125 mg/L,47.3%,25.9%,20.2%,INH [8]: 0.76 ng/mL; EC50 [9]: 7.86 mg/L
CC(C)c1ccc2c(c1)CC[C@H]1[C@@](CNC(=O)c3ccccn3)(Cc3ccc(OC(F)(F)F)cc3)CCC[C@]21C,> 128 mg/L,26.1%,64 mg/L,0.9%,1.6%,0%,–
CC(C)c1ccc2c(c1)CC[C@H]1[C@@](CNC(=O)c3ccccn3)(Cc3ccc(F)cc3)CCC[C@]21C,32 mg/L,1.2%,4 mg/L,0%,0%,1.7%,–
COc1ccccc1C[C@@]1(CNC(=O)c2ccccn2)CCC[C@]2(C)c3ccc(C(C)C)cc3CC[C@@H]12,> 128 mg/L,46.2%,32 mg/L,20.6%,0%,3%,–
CC(C)c1ccc2c(c1)CC[C@H]1[C@@](CNC(=O)c3ccccn3)(Cc3ccc(N)cc3)CCC[C@]21C,32 mg/L,28.5%,32 mg/L,5.6%,3.5%,4%,–
CN[C@H](CC(C)C)C(=O)N[C@H]1C(=O)N[C@@H](CC(N)=O)C(=O)N[C@H]2C(=O)N[C@H]3C(=O)N[C@H](C(=O)N[C@H](C(=O)O)c4cc(O)cc(O)c4-c4cc3ccc4O)[C@H](O)c3ccc(c(Cl)c3)Oc3cc2cc(c3O[C@@H]2O[C@H](CO)[C@@H](O)[C@H](O)[C@H]2O[C@H]2C[C@](C)(N)[C@H](O)[C@H](C)O2)Oc2ccc(cc2Cl)[C@H]1O [VANCOMYCIN],–,–,128 mg/L,–,–,–,–
CC(C)c1ccc2c(c1)CC[C@H]1[C@@](CNC(=O)c3ccccn3)(Cc3ccccc3)CCC[C@]21C,> 128 mg/L,1.9%,32 mg/L,12.4%,3.8%,2.5%,–
CC(C)c1ccc2c(c1)CC[C@H]1[C@@](CNC(=O)c3ccccn3)(Cc3ccccc3C#N)CCC[C@]21C,> 128 mg/L,29.3%,64 mg/L,23.2%,0%,0%,–
COc1ccc(C[C@@]2(CN)CCC[C@]3(C)c4ccc(C(C)C)cc4CC[C@@H]23)cc1,> 128 mg/L,95.6%,32 mg/L,85.2%,34.8%,22.1%,Activity [10]: Active; Activity [11]: 27.7%; Activity [12]: Active; Activity [13]: Active; Activity [14]: Active; Activity [15]: Active; EC50 [9]: 5.21 mg/L; Activity [16]: Active; Activity [17]: Active; Activity [18]: Active; Activity [19]: Active; Activity [7]: 76.9%; Activity [20]: Active
CC(C)c1ccc2c(c1)CC[C@H]1[C@@](CNC(=O)c3ccccn3)(Cc3ccc(C(F)(F)F)cc3)CCC[C@]21C,64 mg/L,16.3%,64 mg/L,1.1%,0%,1.7%,–
Cc1ccc(C[C@@]2(CNC(=O)c3ccccn3)CCC[C@]3(C)c4ccc(C(C)C)cc4CC[C@@H]23)cc1C,> 128 mg/L,7.4%,64 mg/L,15.2%,0%,4.1%,–
O=C(Nc1ccccc1-c1ccc(Cl)cc1)c1cccnc1Cl [BOSCALID],–,80.2%,–,90.1%,32%,49.5%,EC50 [9]: 1.57 mg/L
O=C(O)c1cn(C2CC2)c2cc(N3CCNCC3)c(F)cc2c1=O [CIPROFLOXACIN],> 128 mg/L,–,–,–,–,–,INH [8]: 1.11 ng/mL
COc1cccc(C[C@@]2(CNC(=O)c3ccccn3)CCC[C@]3(C)c4ccc(C(C)C)cc4CC[C@@H]23)c1,16 mg/L,5.2%,8 mg/L,3.7%,0%,0%,–
CC(C)c1ccc2c(c1)CC[C@H]1[C@@](CNC(=O)c3ccccn3)(Cc3ccc(C#N)cc3)CCC[C@]21C,> 128 mg/L,28.5%,64 mg/L,30.6%,0%,5.5%,–
CC(C)c1ccc2c(c1)CC[C@H]1[C@@](CNC(=O)c3ccccn3)(Cc3cccc(C#N)c3)CCC[C@]21C,> 128 mg/L,5.8%,32 mg/L,6.3%,4.5%,3%,–
COc1ccc(C[C@@]2(CNC(=O)c3ccccn3)CCC[C@]3(C)c4ccc(C(C)C)cc4CC[C@@H]23)cc1,> 128 mg/L,48.6%,64 mg/L,22.2%,4.5%,4.9%,–
CC(C)c1ccc2c(c1)CC[C@H]1[C@@](CNC(=O)c3ccccn3)(Cc3cccc(C(F)(F)F)c3)CCC[C@]21C,> 128 mg/L,8.2%,64 mg/L,0%,0%,1%,–
